Laboratory results as given in patent publication US7399777B2, “Diarylcycloalkyl derivatives, processes for their preparation and their use as pharmceuticals” (Sanofi-Aventis Deutschland GmbH, priority 2001, dated 2008).

target: T1, human PPARα (Homo sapiens, UniProt Q07869); assay: PPARα reporter cell line assay (stably transfected HEK cells, GR-GAL4-PPARα fusion protein, firefly luciferase reporter); type: cell-based; conditions: agonist activity in HEK PPARα reporter cell line; 24 h incubation; luciferase luminescence
T1 construct: expressed in transfected cells; host or cells: HEK cells (human embryo kidney), stably transfected with pcDNA3-GR-GAL4-humanPPARα and the luciferase reporter pdeltaMG4LZ
T1 sequence (Q07869 167-468): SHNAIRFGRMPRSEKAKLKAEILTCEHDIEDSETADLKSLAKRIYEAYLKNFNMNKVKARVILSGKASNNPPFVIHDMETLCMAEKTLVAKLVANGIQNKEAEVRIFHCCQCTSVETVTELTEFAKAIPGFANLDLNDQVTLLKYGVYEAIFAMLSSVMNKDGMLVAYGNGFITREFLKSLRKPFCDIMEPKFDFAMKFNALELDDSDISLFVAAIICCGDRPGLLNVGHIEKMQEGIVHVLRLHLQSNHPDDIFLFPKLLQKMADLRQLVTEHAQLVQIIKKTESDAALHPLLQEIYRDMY
Text: To analyze the effectiveness of substances which bind to human PPARα, activating it in agonistic manner, a stable transfected HEK cell line (HEK=human embryo kidney) designated here as “PPARα reporter cell line” is used. It contains two genetic elements, a firefly luciferase reporter element and a PPARα fusion protein (GR-GAL4-PPARα) which controls the expression of the firefly luciferase reporter element in a PPARα ligand dependent way.
The PPARα reporter cell line was established in two steps: First, the firefly luciferase reporter element was constructed and stably transfected into HEK cells. Five DNA binding sites for the yeast transcription factor GAL4 (five repetitions of the sequence 5′-CGGAGTACTGTCCTCCGAG-3′) (SEQ ID NO:1) were cloned 5′ upstream of a 68 bp minimal RNA polymerase II promoter from the GR mouse mammary tumor virus long terminal repeat (accession # V01175) providing a CCAAT-box as well as a TATA-element. Cloning and sequencing was done as described by Sambrook J. et. al. (Molecular cloning, Cold Spring Harbor Laboratory Press, 1989). The complete Photinus pyralis luciferase gene (accession # M 15077) was cloned 3′ downstream of the GAL4 binding sites and the MMTV minimal promoter. The firefly luciferase reporter element consisting of 5 GAL4 binding sites, the MMTV minimal promoter and the full length luciferase gene was recloned into a plasmid backbone harboring a Zeozin resistence gene leading to plasmid “pdeltaMG4LZ”. This vector was transfected in HEK cells as described by Ausubel, F. M. et al. (Current protocols in molecular biology, Vol. 1-3, John Wiley & Sons, Inc., 1995). Stable clones have been selected using Zeozin as a selection agent (0.5 mg/ml).
In a second step, the PPARα fusion protein (GR-GAL4-PPARα) that controls expression of the firefly luciferase reporter element, was stably integrated in this cell background. For this purpose the cDNAs coding for the N-terminal 76 amino acids of the human glucocorticoid receptor (“GR”, accession # P04150) have been linked to amino acids 1-147 of the yeast GAL4-protein (accession # P04386) followed by the ligand binding domain of humanPPARα (amino acids S167-Y468, accession # S74349). The GR-GAL4-human PPARα construct was cloned into plasmid pcDNA3 (Invitrogen) were its expression is driven constitutively by the Cytomegalovirus promoter. The plasmid pcDNA3-GR-GAL4-humanPPARα was transfected in a stable HEK-cell clone that already contained the firefly luciferase reporter element described above. A double-transfected cell line containing both, the firefly luciferase reporter element as well as the GR-GAL4-humanPPARα fusion protein, has been selected on medium supplemented with Zeozin (0.5 mg/ml) and G418 (0.5 mg/ml).
The activity of PPARα agonists is determined in a three day test, described below:
The PPARα reporter cell line is cultivated up to 80% confluence in DMEM medium (# 41965-039, Life Technologies) with the following additives: 10% cs-FCS (fetal calf serum, #SH-30068.03, Hyclone), antibiotics (0.5 mg/ml of zeozin [#R250-01, Invitrogen], 0.5 mg/ml of G418 [#10131-019, Life Technologies], 1% penicillin streptomycin solution [#15140-031, Life Technologies]) and 2 mM of L-glutamine (#25030-032, Life Technologies). Cultivation is carried out in standard cell culture bottles (# 33111, Becton Dickinson) in a cell culture incubator at 37° C. and 5% CO2. The 80% confluent cells are washed once with 30 ml of PBS (#14190-094, Life Technologies), treated with 2 ml of trypsin solution (#25300-054, Life Technologies) at 37° C. for 2 min, taken up in 5 ml of the medium described above and counted in a cell counter. After dilution to 500,000 cells/ml, in each case 35,000 cells are sown into each well of a 96-well microtiter plate having a clear plastic bottom (#3610, Coming Costar). The plates are incubated in a cell incubator at 37° C. and 5% CO2 for 24 h.
The PPARα agonists to be tested are dissolved in DMSO at a concentration of 10 mM. […]

SMILES | EC50 [nM]
Cc1cccc(CO[C@@H]2CCC[C@H](OCc3nc(-c4cccc(OC(F)(F)F)c4)oc3C)C2)c1C(=O)O [LVII, 2-{1R,3S-3-[2-(3-Trifluoromethoxyphenyl)-5-methyloxazol-4-ylmethoxy]cyclohexyloxymethyl}-6-methylbenzoic acid] | 0.13
COc1ccc(-c2nc(CO[C@H]3CCC[C@@H](OCc4cccc(C)c4C(=O)O)C3)c(C)o2)cc1OC [LVIII, 2-{1R,3S-3-[2-(3,4-Dimethoxyphenyl)-5-methyloxazol-4-ylmethoxy]cyclohexyloxymethyl}-6-methylbenzoic acid] | 0.46
Cc1ccc(-c2nc(CO[C@H]3CCC[C@@H](OCc4cccc(C)c4C(=O)O)C3)c(C)o2)cc1 [LXII, 2-Methyl-6-[1R,3S-3-(5-methyl-2-p-tolyloxazol-4-ylmethoxy)cyclohexyloxymethyl]benzoic acid] | 0.08
COc1ccc(-c2nc(CO[C@@H]3CCC[C@H](OCc4cccc(C)c4C(=O)O)C3)c(C)o2)cc1 [LXV, 2-{1S,3R-3-[2-(4-Methoxyphenyl)-5-methyloxazol-4-ylmethoxy]cyclohexyloxymethyl}-6-methylbenzoic acid] | 1.1
COc1ccc(-c2nc(CO[C@H]3CCC[C@@H](OCc4cccc(C)c4C(=O)O)C3)c(C)o2)cc1C [LXXII, 2-[(1R,3S)-3-(2-(4-methoxy-3-methylphenyl)-5-methyl-oxazol-4-ylmethoxy)-cyclohexyloxymethyl]-6-methyl-benzoic acid] | 0.24
Cc1cccc(CO[C@@H]2CCC[C@H](OCc3nc(-c4cccc(F)c4)oc3C)C2)c1C(=O)O [XLVIII, 2-{1R,3S-3-[2-(3-Fluoro-phenyl)-5-methyl-oxazol-4-ylmethoxyl]-cyclohexyloxymethyl}-6-methylbenzoic acid] | 0.25

Other lines, results leading:

EC50 [nM] | SMILES
0.56 | Cc1ccc(-c2nc(CO[C@@H]3CCC[C@H](OCc4cccc(C)c4C(=O)O)C3)c(C)o2)cc1 [LXIII, 2-Methyl-6-[1S,3R-3-(5-methyl-2-p-tolyloxazol-4-ylmethoxy)cyclohexyloxymethyl]benzoic acid]
0.13 | COc1ccc(-c2nc(CO[C@H]3CCC[C@@H](OCc4cccc(C)c4C(=O)O)C3)c(C)o2)cc1 [LXIV, 2-{1R,3S-3-[2-(4-Methoxyphenyl)-5-methyloxazol-4-ylmethoxy]cyclohexyloxymethyl}-6-methylbenzoic acid]
0.48 | Cc1cccc(CO[C@@H]2CCC[C@H](OCc3nc(-c4cccc(Br)c4)oc3C)C2)c1C(=O)O [LXVI, 2-{1R,3S-3-[2-(3-Bromophenyl)-5-methyloxazol-4-ylmethoxy]cyclohexyloxymethyl}-6-methylbenzoic acid]
0.28 | Cc1cccc(CO[C@@H]2CCC[C@H](OCc3nc(-c4ccc(OC(F)(F)F)cc4)oc3C)C2)c1C(=O)O [LXX, 2-methyl-6-[(1R,3S)-3-(5-methyl-2-(4-trifluoromethoxyphenyl)-oxazol-4-ylmethoxy)-cyclohexyloxymethyl]-benzoic acid]
16 | Cc1cccc(COC2C=CC(OCc3coc(-c4ccc(F)cc4)n3)C2)c1C(=O)O (centres unmarked) [XIX, 2-{4-[2-(4-Fluorophenyl)oxazol-4-ylmethoxy]cyclopent-2-enyloxymethyl}-6-methylbenzoic acid]
